# Reference: patent US20220324835A1 (Nurix Therapeutics, Inc., priority 2018, published 2022)
# Key:
# Cbl-b [1] = biological target: T1, Cbl-b (Homo sapiens, UniProt Q13191); test: Cbl-b inhibition assay (Cbl-b activity assay, FRET, Biological Example 1; 100 mM NaCl, 60 nM Src kinase); type: biochemical; details: upper bound stated in text lists; read-out: IC50 values in the Cbl-b inhibition assay of Biological Example 1
# Outline: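 TR-FRET assay using N-terminal biotinylated Avi-tagged Cbl-b bound to streptavidin-terbium, Src kinase for Cbl-b phosphorylation, and UbcH5B irreversibly conjugated to Bodipy-Fluorescein-ubiquitin. Phosphorylated Cbl-b binds UbcH5B-Ub, bringing the fluorophores together; inhibition is read as loss of FRET signal.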
# T-cell [2] = test: IL-2 secretion from T-cells co-stimulated with anti-CD3 and anti-CD28 antibody (Biological Example 2); type: cell-based, human; details: Homo sapiens, T-cell, primary human total T-cells, baseline = anti-CD3/anti-CD28 stimulated cells without inhibitor, read-out: IL-2 secretion, Anti-CD3/Anti-CD28 stimulation, fold change over baseline; for fold induction at 0.3 µM: 0.3 μM compound; for fold induction at 1 µM: 1 μM compound
# Outline: (§1)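 No assay protocol given; T-cells stimulated with anti-CD3 alone or anti-CD3 plus anti-CD28, with or without Cbl-b inhibitor. Activation read as IL-2 secretion or CD25 surface staining, expressed as fold over baseline from uninhibited cells […].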
# T-cell [3] = test: CD25 cell surface staining on T-cells co-stimulated with anti-CD3 and anti-CD28 antibody (Biological Example 2); type: cell-based, human; details: Homo sapiens, T-cell, primary human total T-cells, baseline = anti-CD3/anti-CD28 stimulated cells without inhibitor, read-out: CD25 staining, Anti-CD3/Anti-CD28 stimulation, fold change over baseline; for fold induction at 0.3 µM: 0.3 μM compound; for fold induction at 1 µM: 1 μM compound
# Outline: as §1
# Cbl-b [4] = biological target: T1, Cbl-b; test: Cbl-b activity assay (Cbl-b inhibition assay), TR-FRET of Cbl-b interaction with UbcH5B-Ub; type: biochemical; details: assay buffer with 100 mM NaCl, 60 nM Src kinase; read-out: Cbl-b activity IC50
# Outline: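 TR-FRET readout of Cbl-b binding to Bodipy-fluorescein N-terminally labeled Ub conjugated to UbcH5B C85K, measured with compound present. After compound incubation, 60 nM Src kinase with 1 mM ATP and 5 mM MgCl2 (final) was added for 1.5 h, then a further 1 h incubation; asterisked values used 50 mM NaCl buffer and 30 nM Src.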
# T-cell [5] = test: IL-2 secretion from T-cells stimulated with anti-CD3 antibody alone (Biological Example 2); type: cell-based; details: 1 μM compound, primary human total T-cells, read-out: IL-2 secretion, Anti-CD3 stimulation, fold change over baseline
# T-cell [6] = test: CD25 cell surface staining on T-cells stimulated with anti-CD3 antibody alone (Biological Example 2); type: cell-based; details: 1 μM compound, primary human total T-cells, baseline = anti-CD3/anti-CD28 stimulated cells without inhibitor, read-out: CD25 staining, Anti-CD3 stimulation, fold change over baseline
# T1 sequence (Q13191 36-427): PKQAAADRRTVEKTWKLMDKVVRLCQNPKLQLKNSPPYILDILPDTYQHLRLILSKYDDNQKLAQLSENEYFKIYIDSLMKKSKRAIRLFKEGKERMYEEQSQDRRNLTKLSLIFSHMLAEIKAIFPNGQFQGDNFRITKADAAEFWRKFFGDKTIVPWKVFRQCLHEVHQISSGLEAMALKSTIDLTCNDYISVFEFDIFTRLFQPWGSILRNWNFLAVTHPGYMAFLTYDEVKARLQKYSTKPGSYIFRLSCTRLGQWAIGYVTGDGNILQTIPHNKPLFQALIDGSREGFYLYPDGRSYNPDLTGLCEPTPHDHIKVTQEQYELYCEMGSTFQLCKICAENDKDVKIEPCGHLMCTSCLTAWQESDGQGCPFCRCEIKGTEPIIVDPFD
Compound,IC50 (Cbl-b [1]),fold induction at 0.3 µM (T-cell [2]),fold induction at 1 µM (T-cell [2]),fold induction at 0.3 µM (T-cell [3]),fold induction at 1 µM (T-cell [3]),IC50 (Cbl-b [4]),fold induction at 1 µM (T-cell [5]),fold induction at 1 µM (T-cell [6])
"Cc1cc(C(=O)Nc2cccc(C3(Cc4nocc4C)COC3)c2)nc(C2CC2)n1 [Compound 509, 2-cyclopropyl-6-methyl-N-(3-{3-[(4-methyl-1,2-oxazol-3-yl)methyl]oxetan-3-yl}phenyl)pyrimidine-4-carboxamide]",≤ 100 nM,> 7.5,> 7.5,1.31 to 1.5,1.31 to 1.5,< 100 nM,> 0.201,> 1
"Cc1cc(C(=O)Nc2cccc(C(C)(C)Cc3nncn3C)c2)nc(C2CC2)n1 [Compound 511, 2-cyclopropyl-6-methyl-N-{3-[2-methyl-1-(4-methyl-1,2,4-triazol-3-yl)propan-2-yl]phenyl}pyrimidine-4-carboxamide]",≤ 100 nM,5 to 7.5,> 7.5,1.31 to 1.5,1.31 to 1.5,< 100 nM,0.101 to 0.15,0.801 to 1
"Cn1cnnc1C(F)(F)[C@](C)(F)c1cccc(NC(=O)c2cc(CN3CC[C@H](F)C3)nc(C3CC3)n2)c1 [Compound 512, 2-cyclopropyl-6-{[(3S)-3-fluoropyrrolidin-1-yl]methyl}-N-{3-[(2R)-1,1,2-trifluoro-1-(4-methyl-1,2,4-triazol-3-yl)propan-2-yl]phenyl}pyrimidine-4-carboxamide]",≤ 100 nM,2.51 to 5,5 to 7.5,1.01 to 1.3,1.01 to 1.3,< 100 nM,0.051 to 0.1,0.801 to 1
"Cn1cnnc1CC1(c2cccc(N3Cc4c(cc(OC5CC5)cc4C(F)(F)F)C3=O)c2)COC1 [Compound 513, 6-cyclopropoxy-2-(3-{3-[(4-methyl-1,2,4-triazol-3-yl)methyl]oxetan-3-yl}-phenyl)-4-(trifluoromethyl)-3H-isoindol-1-one]",≤ 100 nM,1.01 to 2.5,2.51 to 5,1.01 to 1.3,1.01 to 1.3,< 100 nM,0.151 to 0.2,> 1
"Cn1cnnc1CC1(c2cccc(N3Cc4c(cc(OC5CNC5)cc4C(F)(F)F)C3=O)c2)COC1 [Compound 514, 6-(azetidin-3-yloxy)-2-(3-{3-[(4-methyl-1,2,4-triazol-3-yl)methyl]oxetan-3-yl}phenyl)-4-(trifluoromethyl)-3H-isoindol-1-one]",≤ 100 nM,1.01 to 2.5,1.01 to 2.5,1.01 to 1.3,1.01 to 1.3,< 100 nM,0.051 to 0.1,0.801 to 1
"Cc1cc(C(=O)Nc2cccc(-c3c(-c4nncn4C)cnn3C)c2)nc(C2CC2)n1 [Compound 522, 2-cyclopropyl-6-methyl-N-(3-(l-methyl-4-(4-methyl-4H-1,2,4-triazol-3-yl)-1H-pyrazol-5-yl)phenyl)pyrimidine-4-carboxamide]",≤ 300 nM,1.01 to 2.5,1.01 to 2.5,1.01 to 1.3,1.01 to 1.3,100 to 300 nM,0.101 to 0.15,0.601 to 0.8
"Cn1cnnc1-c1cnn(C)c1-c1cccc(N2Cc3c(cccc3C(F)(F)F)C2=O)c1 [Compound 523, 2-(3-(l-methyl-4-(4-methyl-4H-1,2,4-triazol-3-yl)-1H-pyrazol-5-yl)phenyl)-4-(trifluoromethyl)isoindolin-1-one]",≤ 300 nM,1.01 to 2.5,1.01 to 2.5,1.01 to 1.3,1.01 to 1.3,100 to 300 nM,0.051 to 0.1,0.601 to 0.8
"Cc1cc(C(=O)Nc2cccc(C3(Cc4nncn4C)CC(F)(F)C3)c2)nc(C2CC2)n1 [Compound 526, 2-cyclopropyl-N-(3-(3,3-difluoro-1-((4-methyl-4H-1,2,4-triazol-3-yl)methyl)cyclobutyl)phenyl)-6-methylpyrimidine-4-carboxamide]",≤ 100 nM,5 to 7.5,> 7.5,1.01 to 1.3,1.01 to 1.3,< 100 nM,> 0.201,> 1
"Cn1cnnc1CC1(c2cccc(N3Cc4c(cccc4C(F)(F)F)C3=O)c2)CC(F)(F)C1 [Compound 527, 2-(3-(3,3-difluoro-1-((4-methyl-4H-1,2,4-triazol-3-yl)methyl)cyclobutyl)-phenyl)-4-(trifluoromethyl)isoindolin-1-one]",≤ 100 nM,2.51 to 5,5 to 7.5,1.01 to 1.3,1.01 to 1.3,< 100 nM,> 0.201,> 1
"Cn1cnnc1CC1(c2cccc(N3Cc4c(cc(CN5CCCC(F)(F)CC5)cc4C(F)(F)F)C3=O)c2)COC1 [Compound 528, 6-((4,4-difluoroazepan-1-yl)methyl)-2-(3-(3-((4-methyl-4H-1,2,4-triazol-3-yl)methyl)oxetan-3-yl)phenyl)-4-(trifluoromethyl)isoindolin-1-one]",≤ 100 nM,> 7.5,> 7.5,1.01 to 1.3,1.01 to 1.3,< 100 nM,> 0.201,> 1
"Cn1cnnc1CC1(c2cccc(N3Cc4c(cc(CC5CCCO5)cc4C(F)(F)F)C3=O)c2)COC1 (stereo not drawn) [Compound 529, 2-(3-(3-((4-methyl-4H-1,2,4-triazol-3-yl)methyl)oxetan-3-yl)phenyl)-6-((THF-2-yl)methyl)-4-(trifluoromethyl)isoindolin-1-one]",≤ 100 nM,2.51 to 5,> 7.5,1.01 to 1.3,1.01 to 1.3,< 100 nM,0.101 to 0.15,0.801 to 1
"CN1CCC(=O)C(Cc2cc3c(c(C(F)(F)F)c2)CN(c2cccc(C4(Cc5nncn5C)COC4)c2)C3=O)C1 (stereo not drawn) [Compound 531, 6-((l-methyl-4-oxopiperidin-3-yl)methyl)-2-(3-(3-((4-methyl-4H-1,2,4-triazol-3-yl)methyl)oxetan-3-yl)phenyl)-4-(trifluoromethyl)isoindolin-1-one]",≤ 100 nM,> 7.5,> 7.5,1.01 to 1.3,1.01 to 1.3,< 100 nM,> 0.201,> 1
"Cc1conc1CC1(c2cccc(N3Cc4c(cc(CN5CCC6(CC6)C5)cc4C(F)(F)F)C3=O)c2)COC1 [Compound 535, 6-{5-azaspiro[2.4]heptan-5-ylmethyl}-2-(3-{3-[(4-methyl-1,2-oxazol-3-yl)methyl]oxetan-3-yl}phenyl)-4-(trifluoromethyl)-3H-isoindol-1-one]",≤ 100 nM,> 7.5,> 7.5,1.31 to 1.5,1.31 to 1.5,< 100 nM,> 0.201,> 1
"Cn1cnnc1CC1(c2cccc(N3Cc4c(cc(CN5CC(F)C5(C)C)cc4C(F)(F)F)C3=O)c2)COC1 (stereo not drawn) [Compound 536, 6-((3-fluoro-2,2-dimethylazetidin-1-yl)methyl)-2-(3-(3-((4-methyl-4H-1,2,4-triazol-3-yl)methyl)oxetan-3-yl)phenyl)-4-(trifluoromethyl)isoindolin-1-one]",≤ 100 nM,2.51 to 5,5 to 7.5,1.31 to 1.5,1.31 to 1.5,< 100 nM,0.101 to 0.15,> 1
"CC(c1cc(C(=O)Nc2cccc(C3(Cc4nncn4C)COC3)c2)nc(C2CC2)n1)N1CC(F)C1 (stereo not drawn) [Compound 538, 2-cyclopropyl-6-(1-(3-fluoroazetidin-1-yl)ethyl)-N-(3-(3-((4-methyl-4H-1,2,4-triazol-3-yl)methyl)oxetan-3-yl)phenyl)pyrimidine-4-carboxamide]",≤ 100 nM,1.01 to 2.5,2.51 to 5,1.01 to 1.3,1.31 to 1.5,< 100 nM,0.101 to 0.15,0.801 to 1
